Data: patent US7524487B2, “Compositions and methods for modulating interleukin-10” (University of Maryland, priority 2005, dated 2009)

Tests used:
[1] = test system: Sp1; experiment: EMSA of Sp1 binding to the IL-10 promoter motif, nuclear extracts of BMMφ; assay type: cell-based, mice; conditions: BMMφ stimulated with LPS 10 ng/ml or LPS+E-IgG for 30 min
Protocol: A. Cells were stimulated with LPS (10 ng/ml) or LPS+E-IgG for 30 min and nuclear extracts were analyzed by EMSA using Sp1 (A) or STAT3 (B) specific probes. C. RAW264.7 cells were stimulated with medium (open bar), E-IgG (dotted bar), LPS (solid bar) or LPS+E-IgG (striped bar) and cytokines measured by ELISA after 6 h. Data represents the mean of triplicate samples±SD. D. RAW264.7 cells were transfected with pRL-IL10-luciferase reporter plasmid (5 ug/ml) and 24 h later stimulated with medium (con), 10 ng/ml LPS (solid bar) or E-IgG+LPS (striped bar) for 4 h. Cells were then lysed and luciferase activity measured. This figure is representative of 3 experiments.
Electrophoretic mobility shift assay (EMSA). Nuclear extracts were prepared from 2×10^7 Mφ using the Nuclear Extraction kit (Panomics, Redwood City, Calif.) following the manufactures protocol. EMSAs were carried out using the EMSA “Gel-Shift” kit (Panomics, Redwood City, Calif.). Briefly, 5 μg of nuclear extract were incubated with biotin-Sp1 or STAT3 probe±unlabelled probe for 30 min at 20° C., and then run on a 6% polyacrylamide gel. Oligo/protein complexes were transferred to Biodyne B membrane (Pall, Ann Arbor, Mich.). Following transfer, membranes were incubated with streptavidin-HRP and protein visualized by chemiluminescence.

[2] = test system: bone marrow derived macrophages (BMMφ); experiment: Cytokine ELISA on supernatants of stimulated bone marrow derived macrophages (LPS ± E-IgG)
[3] = test system: IL-10 promoter; experiment: DNase I accessibility of the IL-10 promoter (nucleosome −2) by QRT-PCR; assay type: cell-based, mice; conditions: BMMφ pre-treated with PD98059 15 μM for 1 hour, IC plus LPS 10 ng/mL for 60 min
Protocol: FIG. 23 are graphs showing enhanced chromatin accessibility following ERK activation. (A) BMMφ were stimulated with IC plus LPS (10 ng/mL) for 0, 15, 30, 60, and 120 min. Nuclei were isolated at each time point post-stimulation and treated with or without MNase. DNA was purified and analyzed for the presence of sequences corresponding to nucleosomes −2 and −12 by QRT-PCR. The data were graphically plotted as percentage of MNase accessibility relative to the samples of stimulation at zero time point. (B) BMMφwere pre-treated with PD98059 (15 μM) (open bars) or drug vehicle control (solid bars) for 1 hour and then stimulated with IC plus LPS (10 ng/mL) for 60 min. Nuclei were isolated from each group and treated with or without DNase I followed by extraction of genomic DNA. […] The data were expressed as percentage of DNase I accessibility relative to undigested genomic DNA sample and graphically plotted for each treated group. […]
DNase I sensitivity assayed by Real-time PCR. DNase I accessibility was determined as previously described (Goriely, et al. 2003. Blood 101:4894-4902; Rao, et al. 2001. J. Immunol. 167:4494-4503.) with minor modifications. […]
MNase accessibility assay was performed on cells grown in 100-mm tissue culture dishes that were stimulated with LPS/IC. […] DNase I accessibility was determined as previously described (Lucas, M., X. Zhang, et al. 2005. J. Immunol. 175:469).

For COc1cccc(-c2cc(=O)c3ccccc3o2)c1N [PD98059], the “Sp1 binding to the IL-10 promoter (EMSA)” value [1] was “no effect”, the “IL-10 secretion (ELISA)” value ([2]; BMMφ pretreated 30 min with PD98059 10 μM, SB203580 1 μM or JNK inhibitory peptide 1 μM, then LPS 10 ng/ml ± E-IgG, supernatants after 20 h) was “substantial inhibition” and the “IL-12 (p40) production (ELISA)” value ([2]; BMMφ pretreated 30 min with inhibitor, then LPS 10 ng/ml ± E-IgG, 20 h) was “actually increased”. The “superinduction (augmentation) of IL-10 production caused by immune complexes” value ([2]; BMMφ, LPS 10 ng/ml + E-IgG versus LPS alone, 20 h, inhibitor pretreatment or 100 nM siRNA) was “appeared to prevent” and the “reduction of sensitivity to DNase I at nucleosome −2” value [3] was “greater than half”.
